Source: ChEMBL document CHEMBL5050861 (2021)
≈ marks a conversion by molar mass, not a printed value.

Key:
[1] = Inhibition of recombinant mouse GALK1 using ATP as substrate incubated for 1 hr and measured by Kinase-Glo assay
[2] = Kinetic aqueous solubility of the compound; type: physicochemical; settings: buffer; read-out: Kinetic_solubility
[3] = Stability of compound in rat microsomes assessed as half-life; type: ADME, Microsome

Row | Structure (SMILES) | IC50 [1] | solubility kinetic [2] [µg/mL] | half-life [3] [min] | IC50 ([1]; read-out: IC50) [µM]
1 | CC1=C(C(=O)Nc2nncs2)C2(CCOC2)N=C(Nc2nc3ccccc3o2)N1 (stereo unspecified) | Not Active | 37.9 (≈ 92.1 µM) | > 30 | –
2 | O=C(Nc1nncs1)C1=C(c2cnccn2)NC(Nc2nc3ccccc3o2)=NC1c1ccccc1Cl (stereo unspecified) | – | 2.1 (≈ 3.96 µM) | > 30 | 21.7
3 | COc1ccccc1CNC(=O)C1=C(C)NC(Nc2nc3ccccc3o2)=NC1c1ccccc1Cl (stereo unspecified) | – | < 1 | 1.4 | 12.2
4 | CC1=C(C(=O)Nc2nncs2)C(c2nn(C)cc2Cl)N=C(Nc2nc3ccccc3o2)N1 (stereo unspecified) | – | 12.8 (≈ 27.2 µM) | > 30 | 17.2
5 | COC(=O)Cc1ccc(NC(=O)C2=C(C)NC(Nc3nc4ccccc4o3)=NC2c2ccccc2Cl)cc1 (stereo unspecified) | – | < 1 | 7.46 | 12.2
6 | CC1=C(C(=O)Nc2ccccn2)C(c2ccccc2Cl)N=C(Nc2nc3cccc(N)c3o2)N1 (stereo unspecified) | – | < 1 | > 30 | 19.3
7 | CC1=C(C(=O)NCc2cnn(C)c2C)C(c2ccc(C)cc2Cl)N=C(Nc2nc3ccc(F)cc3o2)N1 (stereo unspecified) | – | < 1 | 2.99 | 3.43
8 | CC1=C(C(=O)Nc2cc(C(=O)O)ccc2F)C(c2ccccc2Cl)N=C(Nc2nc3ccccc3o2)N1 (stereo unspecified) | – | 25.4 (≈ 48.9 µM) | > 30 | 10.9
9 | CC1=C(C(=O)Nc2ccc(Cl)cn2)C(c2ccccc2Cl)N=C(Nc2nc3ccccc3o2)N1 (stereo unspecified) | Not Active | < 1 | 30.8 | –
10 | CC1=C(C(=O)Nc2cc(C(N)=O)ccn2)C(c2ccccc2Cl)N=C(Nc2nc3ccccc3o2)N1 (stereo unspecified) | – | < 1 | > 30 | 7.69
11 | CC1=C(C(=O)Nc2cc(C(=O)O)ccc2Cl)C(c2ccccc2Cl)N=C(Nc2nc3ccc(F)cc3o2)N1 (stereo unspecified) | – | 54 (≈ 97.4 µM) | > 30 | 19.3
12 | CC1=C(C(=O)NCc2ccc(F)cc2)C(c2ccccc2Cl)N=C(Nc2nc3ccccc3o2)N1 (stereo unspecified) | Not Active | < 1 | 11.3 | –
13 | COC(=O)c1ccnc(NC(=O)C2=C(C)NC(Nc3nc4ccccc4o3)=N[C@H]2c2ccccc2Cl)c1 | – | < 1 | 20 | 6.85
14 | CN(C)C(=O)C1CC(=O)C2=C(C1)NC(Nc1nc3ccccc3o1)=NC2c1ccccc1Cl (stereo unspecified) | – | 10.8 (≈ 23.4 µM) | 20.8 | 4.32
15 | CC1=C(C(=O)Nc2ccc(F)cc2)C(c2ccccc2Cl)N=C(Nc2nc3ccccc3o2)N1 (stereo unspecified) | – | < 1 | > 30 | 12.2
16 | CNC(=O)C1CC(=O)C2=C(C1)NC(Nc1nc3ccccc3o1)=NC2c1ccccc1Cl (stereo unspecified) | – | < 1 | > 30 | 6.85
17 | CC1=C(C(=O)Nc2cc(C(=O)O)ccn2)C(c2ccccc2Cl)N=C(Nc2nc3cccc([N+](=O)[O-])c3o2)N1 (stereo unspecified) | – | 7.3 (≈ 13.3 µM) | > 30 | 38.5
18 | CC1=C(C(=O)Nc2nncs2)C(c2n[nH]cc2Br)N=C(Nc2nc3ccccc3o2)N1 (stereo unspecified) | – | 11.4 (≈ 22.8 µM) | > 30 | 19.3
19 | CC1=C(C(=O)Nc2ccccc2F)C(c2ccccc2Cl)N=C(Nc2nc3ccccc3o2)N1 (stereo unspecified) | – | < 1 | > 30 | 9.68
20 | CC1=C(C(=O)NCc2cnn(C)c2)C(c2ccccc2Cl)N=C(Nc2nc3ccc(F)cc3o2)N1 (stereo unspecified) | – | 13.7 (≈ 27.7 µM) | 26 | 12.2
21 | CC1=C(C(=O)Nc2cc(C(=O)O)ccn2)C(c2ccccc2Cl)N=C(Nc2nc3ccccc3o2)N1C (stereo unspecified) | – | > 76 | > 30 | 34.4

Row | Structure (SMILES) | IC50 [1] | solubility kinetic [2] [µg/mL] | half-life [3] [min] | IC50 ([1]; read-out: IC50) [µM]
22 | CC1=C(C(=O)Nc2ncc(CO)s2)C(c2ccccc2Cl)N=C(Nc2nc3ccccc3o2)N1 (stereo unspecified) | – | < 1 | > 30 | 19.3
23 | CC1=C(C(=O)Nc2nncs2)C(c2cc(Cl)ccc2Cl)N=C(Nc2nc3ccccc3o2)N1 (stereo unspecified) | – | < 1 | > 30 | 10.9
24 | CC1=C(C(=O)NCc2ccc(CO)cc2)C(c2ccccc2Cl)N=C(Nc2nc3ccccc3o2)N1 (stereo unspecified) | – | < 1 | 13.8 | 15.3
25 | CC1=C(C(=O)NCc2cnn(C)c2)C(c2ccccc2Cl)N=C(Nc2nc3ccccc3o2)N1 (stereo unspecified) | – | 24.2 (≈ 50.8 µM) | 15.7 | 12.2
26 | CC1=C(C(=O)Nc2nncs2)C(c2ccccc2C)N=C(Nc2nc3ccccc3o2)N1 (stereo unspecified) | – | < 1 | > 30 | 21.7
27 | CC1=C(C(=O)Nc2ccccn2)C(c2ccccc2Cl)N=C(Nc2nc3ccccc3o2)N1 (stereo unspecified) | – | < 1 | > 30 | 10.9
28 | CCn1cc(CNC(=O)C2=C(C)NC(Nc3nc4cccc(N)c4o3)=NC2c2ccc(C)cc2Cl)cn1 (stereo unspecified) | – | 2.43 (≈ 4.68 µM) | 11.3 | 3.06
29 | CC1=C(C(=O)Nc2cccnc2)C(c2ccccc2Cl)N=C(Nc2nc3ccccc3o2)N1 (stereo unspecified) | – | < 1 | 20 | 12.2
30 | CCn1nc(C)c(CNC(=O)C2=C(C)NC(Nc3nc4ccc(F)c(N)c4o3)=NC2c2ccc(C)cc2Cl)c1F (stereo unspecified) | – | 1.53 (≈ 2.69 µM) | 3.55 | 2.17
31 | CCn1ncc(CNC(=O)C2=C(C)NC(Nc3nc4ccc(F)c(N)c4o3)=NC2c2ccc(C)cc2Cl)c1F (stereo unspecified) | – | < 1 | 7.04 | 1.09
32 | CC1=C(C(=O)Nc2cccc(CN)c2)C(c2ccccc2Cl)N=C(Nc2nc3ccccc3o2)N1 (stereo unspecified) | – | 37.5 (≈ 77 µM) | > 30 | 6.85
33 | COC(=O)c1cccc(NC(=O)C2=C(C)NC(Nc3nc4ccccc4o3)=NC2c2ccccc2Cl)n1 (stereo unspecified) | – | < 1 | > 30 | 12.2
34 | CC1=C(C(=O)Nc2cc(C(=O)O)ccc2F)C(c2ccccc2Cl)N=C(Nc2nc3ccc(F)cc3o2)N1 (stereo unspecified) | – | 35.7 (≈ 66.4 µM) | > 30 | 6.85
35 | COC(=O)c1csc(NC(=O)C2=C(C)NC(Nc3nc4ccccc4o3)=NC2c2ccccc2Cl)n1 (stereo unspecified) | – | < 1 | > 30 | 13.7
36 | CC1=C(C(=O)NCc2cnn(C)c2)C(c2ccc(Cl)cc2Cl)N=C(Nc2nc3cccc(N)c3o2)N1 (stereo unspecified) | – | 15.6 (≈ 29.7 µM) | 17.8 | 6.85
37 | CC1=C(C(=O)NCc2cnn(C)c2)C(c2ccc(C)cc2Cl)N=C(Nc2nc3ncccc3o2)N1 (stereo unspecified) | Not Active | > 49 | 6.15 | –
38 | CC1=C(C(=O)Nc2cc(C(=O)O)ccn2)C(c2ccc(-c3ccc(C(F)(F)F)cc3)cc2Cl)N=C(Nc2nc3ccc(F)cc3o2)N1 (stereo unspecified) | – | 8.1 (≈ 12.2 µM) | > 30 | 21.7
39 | COc1ccc(C(=O)O)cc1NC(=O)C1=C(C)NC(Nc2nc3ccc(F)cc3o2)=NC1c1ccccc1Cl (stereo unspecified) | – | 53.3 (≈ 96.9 µM) | > 30 | 12.2
40 | CC1=C(C(=O)Nc2cccc(F)c2)C(c2ccccc2Cl)N=C(Nc2nc3ccccc3o2)N1 (stereo unspecified) | – | < 1 | > 30 | 12.2
41 | COc1ccc(C2N=C(Nc3nc4ccccc4o3)NC(C)=C2C(=O)Nc2nncs2)c(Cl)c1 (stereo unspecified) | – | < 1 | > 30 | 5.44
42 | CC1=C(C(=O)Nc2cc(C(=O)O)ccn2)C(c2cc(C(=O)O)ccc2Cl)N=C(Nc2nc3ccc(F)cc3o2)N1 (stereo unspecified) | – | > 83 | > 30 | 12.2
